Assay results taken from patent publication US20250218201A1, “ANALYZING PHENOTYPES OF CELLS” (priority 2023, published 2025).

Legend:
Type in all cases: cell-based
[1] = tested on: Jurkat (T Lymphocyte), Clone E6-1 cells; experiment: Annexin V / SYTOX AADvanced flow cytometry of cell death states
Protocol: (§1) The REM-I platform was used to obtain images of cells at different states of dying than one another. More specifically, live, viable Jurkat (T Lymphocyte), Clone E6-1 cells were cultured in RPMI-1640 medium (ThermoFisher Scientific) with 10% fetal bovine serum (FBS) at 37° C. with 5% CO2. A suspension of the cells was prepared at a concentration of 2×10^6 cells/mL for apoptosis and necrosis induction. The following treatments were used to induce cell death (e.g., via apoptosis or necrosis) in different samples of the suspension.
(§2) Sample 2: Camptothecin (ab120115, Abcam), a DNA topoisomerase inhibitor, was administered to the suspension of Jurkat cells at a final concentration of 10 μM and incubated at 37° C. with 5% CO2 for six hours to induce apoptosis by perturbing topoisomerase I.
(§3) Sample 3: Staurosporine (ab120056, Abcam), a protein kinase inhibitor, was administered to the suspension of Jurkat cells at a final concentration of 2 μM and incubated at 37° C. with 5% CO2 for either three hours or for eighteen hours to induce apoptosis by G2/M cell cycle arrest.
(§4) Following treatment, each of the samples was split into two aliquots, one for use in REM-I morphology profiling and one for use in flow cytometry assessment. For morphology profiling, treated cells at a concentration of 3×10^6 cells per mL in a single cell suspension were run on the REM-I platform with a flow rate of about 300 cells/second, and more than about 40,000 images were captured. The data suite 190, described with reference to FIG. 1, was trained using the multi-dimensional feature vectors from the cells and used to generate reduced-dimensionality plots which will be described with reference to FIGS. 16, 17, and 18. For flow cytometry, 1×10^6 treated cells in 100 μL were incubated with 5 μL of PACIFIC BLUE™ Annexin V stock (per manufacturer recommendation) and 1 μL of SYTOX™ AADVANCED™ (A35136, ThermoFisher) for 30 minutes at room temperature and then analyzed with the BD FACSMELODY™ cell sorter and BD FACSCHORUS™ software (BD Biosciences, California).

[2] = as above; settings: human, read-out: viable cells (flow cytometry, Annexin V/SYTOX staining)
Protocol: as §1, §2, §3, §4

[3] = tested on: Jurkat (T Lymphocyte), Clone E6-1 cells; experiment: REM-I label-free high-dimensional morphology profiling (UMAP); settings: 10 μM camptothecin, 6 hours, unstained brightfield images
Protocol: as §1
Sample 2: Camptothecin (ab120115, Abcam), a DNA topoisomerase inhibitor, was administered to the suspension of Jurkat cells at a final concentration of 10 μM and incubated at 37° C. with 5% CO2 for six hours to induce apoptosis by perturbing topoisomerase I. […]
Following treatment, each of the samples was split into two aliquots, one for use in REM-I morphology profiling and one for use in flow cytometry assessment. […] For flow cytometry, 1×10^6 treated cells in 100 μL were incubated with 5 μL of PACIFIC BLUE™ Annexin V stock (per manufacturer recommendation) and 1 μL of SYTOX™ AADVANCED™ (A35136, ThermoFisher) for 30 minutes at room temperature and then analyzed with the BD FACSMELODY™ cell sorter and BD FACSCHORUS™ software (BD Biosciences, California).

[4] = 2 μM staurosporine, eighteen hours
[5] = 2 μM staurosporine, three hours

Compound | dead cells (flow cytometry, Annexin V/SYTOX staining) [1, 4] | necrotic cells (flow cytometry, Annexin V/SYTOX staining) [1, 4] | apoptotic cells (flow cytometry, Annexin V/SYTOX staining) [1, 5] | dead cells (flow cytometry, Annexin V/SYTOX staining) [1, 5] | necrotic cells (flow cytometry, Annexin V/SYTOX staining) [1, 5] | viability at 3 h, 2 μM ([2]; Jurkat cells, 2 μM staurosporine, three hours) | apoptotic cells (flow cytometry, Annexin V/SYTOX staining) ([1]; 10 μM camptothecin, six hours, 37° C.) | viability at 6 h, 10 μM ([2]; Jurkat (T lymphocyte), Clone E6-1 cells, 10 μM camptothecin, six hours, 37° C.) | morphological profile on UMAP compared to healthy cells of Sample 1 [3]
CN[C@@H]1C[C@H]2O[C@@](C)([C@@H]1OC)n1c3ccccc3c3c4c(c5c6ccccc6n2c5c31)C(=O)NC4 [staurosporine, Staurosporine] | 12.4% | 85.0% | 6.96% | 14.1% | 64.5% | 14.5% |  |  | 
CC[C@@]1(O)C(=O)OCc2c1cc1n(c2=O)Cc2cc3ccccc3nc2-1 [Sample 2, Camptothecin] |  |  |  |  |  |  | 28.7% | 71% | morphological shift in the main population
